Values of other authors as cited in patent US20190282591A1, “FINASTERIDE AND SILDENAFIL COMPOSITIONS AND APPLICATIONS” (BLUE GOOSE DRUGS INC., priority 2018, published 2019).

Tests used:
[1] = active metabolite accounts for about one-half
[2] = tested on: dihydrotestosterone (DHT) levels
[3] = molecular target: T1, 5β-reductase (AKR1D1) (Homo sapiens, UniProt P51857); settings: compared with 5α-reductase type I
T1 sequence (P51857 1-326): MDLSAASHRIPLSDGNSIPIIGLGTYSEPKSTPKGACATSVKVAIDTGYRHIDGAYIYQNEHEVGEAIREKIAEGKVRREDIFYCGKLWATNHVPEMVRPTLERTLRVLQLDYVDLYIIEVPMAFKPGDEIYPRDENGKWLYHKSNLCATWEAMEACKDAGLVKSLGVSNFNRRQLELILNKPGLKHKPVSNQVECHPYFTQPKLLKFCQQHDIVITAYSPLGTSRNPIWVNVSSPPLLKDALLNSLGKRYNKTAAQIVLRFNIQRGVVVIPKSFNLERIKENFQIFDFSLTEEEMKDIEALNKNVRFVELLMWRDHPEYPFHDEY

[4] = molecular target: T2, 5α-reductase type I isoenzyme (Homo sapiens, UniProt P18405); settings: 5α-reductase type I vs type II
T2 sequence (P18405 1-259): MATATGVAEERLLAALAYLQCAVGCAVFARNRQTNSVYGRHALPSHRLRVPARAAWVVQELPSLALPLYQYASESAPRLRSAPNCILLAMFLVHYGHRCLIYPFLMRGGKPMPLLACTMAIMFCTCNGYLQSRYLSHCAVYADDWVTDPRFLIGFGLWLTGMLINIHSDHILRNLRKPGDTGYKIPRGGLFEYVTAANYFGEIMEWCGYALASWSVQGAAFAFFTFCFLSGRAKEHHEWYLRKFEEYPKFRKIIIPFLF

CCCc1nn(C)c2c(=O)[nH]c(-c3cc(S(=O)(=O)N4CCN(C)CC4)ccc3OCC)nc12.O=C(O)CC(O)(CC(=O)O)C(=O)O [Sildenafil citrate, 5-[2-ethoxy-5-(4-methylpiperazin-1-yl)sulfonylphenyl]-1-methyl-3-propyl-4H-pyrazolo[4,3-d]pyrimidin-7-one; 2-hydroxypropane-1,2,3-tricarboxylic acid]
bioavailability after oral administration [1]: 40%

C[C@]12C=CC(=O)N[C@@H]1CC[C@@H]1[C@@H]2CC[C@]2(C)[C@@H](C(=O)Nc3cc(C(F)(F)F)ccc3C(F)(F)F)CC[C@@H]12 [dutasteride]
reduction of DHT levels in the entire body ([2]; entire body): more than 99%

CC(C)(C)NC(=O)[C@H]1CC[C@H]2[C@@H]3CC[C@H]4NC(=O)C=C[C@]4(C)[C@H]3CC[C@]12C [finasteride, (5α,17β)-N-(1,1-dimethylethyl)-3-oxo-4-azaandrost-1-ene-17-carboxamide]
affinity for 5β-reductase relative to 5α-reductase [3]: an order of magnitude less than 5α-reductase type I
less inhibitory potency for type I as compared to type II [4]: more than 100 fold
decrease in prostate DHT levels ([2]; prostate, where type II isoenzyme predominates): 85 to 90%
decrease in serum DHT levels ([2]; serum): 65 to 70%
